What was measured:
hNav1.7 = molecular target: T1, hNav1.7 (Homo sapiens, UniProt Q15858); test: cell-based; conditions: patch clamp method not given; read-out: pIC50 Nav1.7 (converted)
T1 construct: host or cells: HEK293

hNav1.4 = hNav1.4 (Homo sapiens, UniProt P35499); test: cell-based; conditions: patch clamp method not given; read-out: pIC50 Nav1.4 (converted)
hNav1.6 = hNav1.6 (Homo sapiens, UniProt Q9UQD0); test: cell-based; conditions: patch clamp method not given; read-out: pIC50 Nav1.6 (converted)
[1] = test system: TTX-resistant sodium current, rat DRG cells; test: Rat DRG patch clamp, TTX-resistant current; format: cell-based
[2] = test system: TTX-sensitive current, rat DRG cells; format: cell-based
[3] = test system: mixed sodium current, rat DRG cells; format: cell-based
[4] = test system: formalin-induced flinching, rat; conditions: in vivo
[5] = test system: formalin-induced flinching, morphine-tolerant rats; conditions: rat, in vivo
Experimental: A soft metal band was glued to the plantar side of one hind paw and rats were allowed to acclimate in the test chamber for 30 min. […] The incidence of nociceptive behavior - flinching and shaking of the injected paw was counted by an automated formalin apparatus (University Anesthesia Research and Development Group, Department of Anesthesiology, University of California, San Diego, La Jolla, CA). The number of paw flinches was tallied by minute over 60 min[60]. Total flinches in phase I (0~10 min) and phase II (11~60 min) were calculated.
Male Sprague-Dawley (CD) rats (Charles River, San Diego) ~250–300 g were catheterized intrathecally as described above. The non-indwelling end (PE60) of the catheter was connected to the flow modulator of an osmotic pump (Alzet 2001, 1 μl/h) loaded with morphine or saline vehicle, which underwent priming at 37 °C overnight in sterile saline. The osmotic pump was implanted subcutaneously above the scapula. To induce morphine tolerance, morphine was infused intrathecally by the osmotic pump at a dose of 15 μg/h for 7 days[61]. On day 7 the pumps were extracted and the wounds were closed with the intrathecal catheters left in place. Catheters were flushed with 20 μL of saline.

[6] = test system: formalin-induced flinching, morphine-tolerant rats; conditions: rat, in vivo; cited from earlier work
[7] = rat, in vivo
[8] = rat, in vivo, iv; cited from earlier work

Chain of hNav1.6 (Q9UQD0 whole entry): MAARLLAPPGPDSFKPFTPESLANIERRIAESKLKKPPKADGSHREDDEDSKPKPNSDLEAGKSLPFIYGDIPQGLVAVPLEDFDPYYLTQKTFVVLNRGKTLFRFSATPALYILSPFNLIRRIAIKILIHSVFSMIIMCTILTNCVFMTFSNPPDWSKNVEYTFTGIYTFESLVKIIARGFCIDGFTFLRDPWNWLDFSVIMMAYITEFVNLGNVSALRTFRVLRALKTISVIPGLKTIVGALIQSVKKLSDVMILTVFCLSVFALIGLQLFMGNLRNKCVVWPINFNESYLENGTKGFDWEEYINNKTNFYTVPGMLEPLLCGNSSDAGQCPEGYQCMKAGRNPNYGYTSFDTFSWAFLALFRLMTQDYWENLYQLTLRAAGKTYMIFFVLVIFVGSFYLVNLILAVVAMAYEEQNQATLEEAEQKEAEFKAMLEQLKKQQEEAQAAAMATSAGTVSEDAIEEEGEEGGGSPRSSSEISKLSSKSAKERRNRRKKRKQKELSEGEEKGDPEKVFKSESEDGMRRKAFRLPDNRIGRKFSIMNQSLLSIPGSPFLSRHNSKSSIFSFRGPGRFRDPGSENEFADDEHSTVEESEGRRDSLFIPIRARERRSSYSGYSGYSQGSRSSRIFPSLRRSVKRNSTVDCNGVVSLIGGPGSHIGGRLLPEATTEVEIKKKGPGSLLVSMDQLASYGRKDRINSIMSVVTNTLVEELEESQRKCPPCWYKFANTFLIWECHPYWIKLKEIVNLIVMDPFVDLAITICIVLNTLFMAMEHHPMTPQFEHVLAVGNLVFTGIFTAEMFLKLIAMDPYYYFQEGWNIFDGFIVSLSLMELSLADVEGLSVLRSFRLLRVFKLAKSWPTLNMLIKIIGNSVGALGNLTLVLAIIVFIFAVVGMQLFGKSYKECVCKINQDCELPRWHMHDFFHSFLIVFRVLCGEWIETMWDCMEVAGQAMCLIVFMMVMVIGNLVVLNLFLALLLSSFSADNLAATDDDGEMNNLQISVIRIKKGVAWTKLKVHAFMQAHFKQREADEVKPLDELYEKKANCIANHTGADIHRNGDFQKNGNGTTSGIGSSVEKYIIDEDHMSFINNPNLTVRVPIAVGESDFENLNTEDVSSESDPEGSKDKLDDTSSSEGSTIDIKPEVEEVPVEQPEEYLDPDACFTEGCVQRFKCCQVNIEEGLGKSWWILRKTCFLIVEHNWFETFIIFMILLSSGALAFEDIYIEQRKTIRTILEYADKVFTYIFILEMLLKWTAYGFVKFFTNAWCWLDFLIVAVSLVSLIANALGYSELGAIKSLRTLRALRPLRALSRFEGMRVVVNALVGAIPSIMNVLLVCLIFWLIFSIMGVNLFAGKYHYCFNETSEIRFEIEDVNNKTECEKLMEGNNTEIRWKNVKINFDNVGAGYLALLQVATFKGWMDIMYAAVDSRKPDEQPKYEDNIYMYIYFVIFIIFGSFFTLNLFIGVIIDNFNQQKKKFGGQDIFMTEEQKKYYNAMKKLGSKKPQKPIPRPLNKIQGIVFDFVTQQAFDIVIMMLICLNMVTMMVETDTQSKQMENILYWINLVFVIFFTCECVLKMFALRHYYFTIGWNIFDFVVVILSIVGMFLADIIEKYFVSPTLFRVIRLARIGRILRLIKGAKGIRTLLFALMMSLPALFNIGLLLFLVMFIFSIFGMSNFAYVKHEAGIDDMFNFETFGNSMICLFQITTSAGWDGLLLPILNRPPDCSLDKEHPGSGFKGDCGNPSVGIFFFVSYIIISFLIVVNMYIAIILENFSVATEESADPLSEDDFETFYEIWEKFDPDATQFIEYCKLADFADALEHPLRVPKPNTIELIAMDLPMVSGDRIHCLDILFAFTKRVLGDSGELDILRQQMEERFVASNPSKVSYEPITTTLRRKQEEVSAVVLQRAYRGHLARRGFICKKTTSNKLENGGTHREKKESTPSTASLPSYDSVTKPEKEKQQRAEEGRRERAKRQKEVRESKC
T1 sequence (Q15858 whole entry): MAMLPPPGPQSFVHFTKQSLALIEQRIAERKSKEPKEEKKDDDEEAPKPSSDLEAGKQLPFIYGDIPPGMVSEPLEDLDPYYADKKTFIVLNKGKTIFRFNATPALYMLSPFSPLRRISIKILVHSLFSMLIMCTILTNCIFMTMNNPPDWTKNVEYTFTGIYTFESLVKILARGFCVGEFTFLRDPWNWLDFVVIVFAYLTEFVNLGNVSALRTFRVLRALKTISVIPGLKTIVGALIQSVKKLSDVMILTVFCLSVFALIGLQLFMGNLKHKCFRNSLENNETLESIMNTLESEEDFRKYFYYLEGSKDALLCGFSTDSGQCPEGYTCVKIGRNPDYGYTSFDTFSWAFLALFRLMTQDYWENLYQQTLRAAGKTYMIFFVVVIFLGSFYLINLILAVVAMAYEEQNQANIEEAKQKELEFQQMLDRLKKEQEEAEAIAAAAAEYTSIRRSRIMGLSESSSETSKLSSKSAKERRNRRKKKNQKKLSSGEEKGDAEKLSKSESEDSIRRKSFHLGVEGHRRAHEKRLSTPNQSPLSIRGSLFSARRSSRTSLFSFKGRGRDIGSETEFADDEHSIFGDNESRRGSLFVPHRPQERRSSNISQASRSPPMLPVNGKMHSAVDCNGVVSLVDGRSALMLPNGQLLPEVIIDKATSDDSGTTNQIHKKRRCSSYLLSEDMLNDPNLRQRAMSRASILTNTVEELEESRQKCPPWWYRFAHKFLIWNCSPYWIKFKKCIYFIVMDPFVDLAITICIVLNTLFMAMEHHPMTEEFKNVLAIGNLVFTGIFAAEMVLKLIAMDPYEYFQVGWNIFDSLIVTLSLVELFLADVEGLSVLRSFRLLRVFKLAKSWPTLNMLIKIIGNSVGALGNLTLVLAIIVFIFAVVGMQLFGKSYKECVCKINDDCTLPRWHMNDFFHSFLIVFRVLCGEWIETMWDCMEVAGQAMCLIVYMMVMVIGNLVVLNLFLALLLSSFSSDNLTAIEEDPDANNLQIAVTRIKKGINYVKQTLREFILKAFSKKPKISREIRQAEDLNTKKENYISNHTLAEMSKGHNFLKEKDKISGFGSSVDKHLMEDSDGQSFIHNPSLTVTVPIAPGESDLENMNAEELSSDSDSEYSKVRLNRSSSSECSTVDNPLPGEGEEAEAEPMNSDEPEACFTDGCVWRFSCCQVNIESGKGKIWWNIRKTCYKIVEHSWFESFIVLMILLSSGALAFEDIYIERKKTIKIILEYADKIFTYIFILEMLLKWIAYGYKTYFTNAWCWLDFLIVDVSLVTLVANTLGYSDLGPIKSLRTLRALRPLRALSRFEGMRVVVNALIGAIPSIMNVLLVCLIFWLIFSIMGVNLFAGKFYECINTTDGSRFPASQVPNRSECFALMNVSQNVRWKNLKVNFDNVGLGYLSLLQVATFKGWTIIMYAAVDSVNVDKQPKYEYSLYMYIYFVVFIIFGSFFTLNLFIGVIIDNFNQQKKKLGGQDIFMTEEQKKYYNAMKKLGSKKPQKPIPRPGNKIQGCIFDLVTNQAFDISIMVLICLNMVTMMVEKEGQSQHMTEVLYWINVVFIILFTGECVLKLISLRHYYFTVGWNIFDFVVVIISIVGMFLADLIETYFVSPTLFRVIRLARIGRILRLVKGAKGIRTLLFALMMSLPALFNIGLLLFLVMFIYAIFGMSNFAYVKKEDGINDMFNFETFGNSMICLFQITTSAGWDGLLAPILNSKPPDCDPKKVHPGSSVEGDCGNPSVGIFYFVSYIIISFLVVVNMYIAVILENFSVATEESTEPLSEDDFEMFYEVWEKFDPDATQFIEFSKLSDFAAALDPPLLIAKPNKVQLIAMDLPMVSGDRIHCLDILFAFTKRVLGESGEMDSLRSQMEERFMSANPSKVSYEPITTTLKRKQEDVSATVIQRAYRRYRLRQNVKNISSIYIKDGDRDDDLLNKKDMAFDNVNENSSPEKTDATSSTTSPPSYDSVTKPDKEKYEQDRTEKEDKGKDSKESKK

CSCC[C@@H]1NC(=O)CNC(=O)[C@H](CCC(=O)O)NC(=O)[C@@H]2CSSC[C@H](NC(=O)[C@@H](N)Cc3ccc(O)cc3)C(=O)N[C@@H](CCC(N)=O)C(=O)N[C@@H](CCCCN)C(=O)N[C@@H](Cc3c[nH]c4ccccc34)C(=O)N[C@@H](CCSC)C(=O)N[C@@H](CCC(N)=O)C(=O)N[C@@H]([C@@H](C)O)C(=O)N[C@H]3CSSC[C@H](NC(=O)[C@H](C(C)C)NC1=O)C(=O)N[C@@H](CCCNC(=N)N)C(=O)N[C@@H](CC(C)C)C(=O)N[C@@H](Cc1c[nH]c4ccccc14)C(=O)N[C@H](C(=O)N[C@@H](CCCCN)C(=O)N[C@@H](CCCCN)C(=O)N[C@@H](CCCCN)C(=O)N[C@@H](CC(C)C)C(=O)N[C@@H](CC(C)C)C(=O)O)CSSC[C@H](NC(=O)[C@H](CCCCN)NC(=O)[C@H](CCCNC(=N)N)NC(=O)[C@H](CCC(=O)O)NC(=O)[C@H](CO)NC(=O)[C@H](CC(=O)O)NC3=O)C(=O)N2 [ProTX-II W7Q, W30L]
IC50 (hNav1.7): 10 nM
IC50 (hNav1.4): 3980 nM
IC50 (hNav1.6): 2000 nM

NC1=N[C@H](O)[C@H]2[C@H]3O[C@]4(O)O[C@@H]([C@@H](O)[C@@]2(N1)[C@@H]4O)[C@]3(O)CO [TTX, tetrodotoxin]
block, predominantly TTX-resistant cells [1]: < 10%
block, predominantly TTX-sensitive cells [2]: ~ 100%
block, mixed cells [3]: 29–68%

CN1CC[C@]23c4c5ccc(O)c4O[C@H]2[C@@H](O)C=C[C@H]3[C@H]1C5 [morphine]
pED50 formalin (phase II) [4]: 5.4 ± 0.22 −log g
efficacy during morphine infusion, day 7 [5]: loses its efficacy by day 7
phase II formalin flinching, morphine-tolerant rats [5]: did not significantly reduce phase II formalin flinching
block of phase 2 during morphine infusion, day 2 [6]: significant block of phase 2 on day 2

ziconotide [reference compound]
pED50 formalin (phase II) [4]: 7.1 ± 0.18 −log g
behavioral side effects [7]: whole body shakes, increased muscle tone and “serpentine” tail movement
scratching behavior [7]: did not induce scratching behavior
histamine release and hemodynamic changes [8]: induce histamine release and associated hemodynamic changes

Reference: paper PMC5206724, “Insensitivity to pain induced by a potent selective closed-state Nav1.7 inhibitor” (Scientific Reports, 2017)
